Results reported in patent publication EP4792822A1, “USE OF PEPTIDE AMIDE COMPOUND IN PREPARATION OF DRUG FOR […] AND VOMITING” (Haisco Pharmaceutical Group Co., Ltd., priority 2023, dated 2025).

System: subjects undergoing elective abdominal surgery under general anaesthesia
Test: Example 2: placebo/active-controlled clinical study of compound 1 injection for postoperative analgesia (flurbiprofen axetil rescue; nausea and vomiting recorded)
Format: in vivo, patients
Experimental: This study was a multicentre, randomised, double-blind, placebo/active-controlled study. About 387 subjects undergoing elective abdominal surgery under general anaesthesia were planned to be enrolled and randomised to three groups: the compound 1 group (129 subjects), the tramadol group (129 subjects), and the placebo group (129 subjects).
After the end of surgery, MOAA/S scores were assessed every 5 ± 1 min. Once the subjects regained consciousness (defined as the first MOAA/S score of 5), the first resting pain intensity assessment was initiated within 5 min [using the numeric rating scale (NRS), where 0-10 represent varying degrees of pain: 0 represents no pain, higher numbers represent more severe pain, and 10 represents the most severe pain]. It was recommended that the interval between two NRS assessments not exceed 30 min. Within 4 h after the end of surgery, subjects who met all inclusion criteria and none of the exclusion criteria were randomised at a 1 : 1 : 1 ratio into the compound 1 group, the tramadol group or the placebo group. It was recommended that randomisation be performed within 10 min after the first NRS score ≥ 4.
After successful randomisation, to prevent the subjects from enduring pain for a long time, the first dose of compound 1 injection (1 µg/kg/dose), tramadol hydrochloride injection (50 mg/dose), or placebo injection was administered to the subjects by the investigator as soon as possible (recommended within 15 min after successful randomisation). The end time of the first postoperative administration of the study drug was recorded as 0 min. At 8 h (± 15 min) and 16 h (± 15 min) after the end of the first administration, a single corresponding dose of the compound 1 injection, tramadol hydrochloride injection, or placebo injection was administered to the subjects, for a total of three administrations.
Resting NRS score assessments were performed in subjects at 15 min ± 5 min, 30 min ± 5 min, 1 h ± 5 min, 2 h ± 15 min, 4 h ± 15 min, 8 h ± 30 min (within 30 min before the second administration of the study drug), 12 h ± 30 min, 16 h ± 30 min (within 30 min before the third administration of the study drug), 20 h ± 30 min, and 24 h ± 1 h after the end of the first administration of the study drug. The NRS score for resting pain refers to the NRS score assessed when the subject is at rest (e.g., sitting or lying still). If the subject was unconscious at a scheduled NRS assessment time point, the score was recorded as follows: if the previous NRS score was ≥ 2, the current NRS score was recorded as 2; if the previous NRS score was < 2, the current NRS score was recorded as the previous score. Meanwhile, it was documented that the subject was unconscious at the time of assessment.
A flurbiprofen axetil injection was administered via intravenous injection for rescue treatment if the subject complained of pain at any time point after the first administration of the study drug, and the resting pain NRS score was ≥ 4. It was recommended that the time from the subject's NRS assessment to actual administration of flurbiprofen axetil injection be ≤ 30 min; an initial intravenous dose of 50 mg be administered, followed by additional doses as needed. It was also recommended that the interval between two rescue treatments be ≥ 3 h and that the interval between rescue medication and study drug administration be ≥ 1 h. However, rescue treatment could be given at any time for severe pain. […] Rescue details (including resting NRS score before rescue, the time of each use of rescue medication, the dosage of rescue medication, etc.) were recorded truthfully.
Prophylactic antiemetic treatment was prohibited during the study. After the first postoperative administration, the investigator administered antiemetic agents based on the occurrence of nausea and vomiting in the subject, and the dosage of the antiemetic agents was recorded. […]

[1] = Example 2, safety analysis set, N = 129, 1 µg/kg/dose, three administrations
[2] = Example 2, listed as compound 1
[3] = compared with tramadol and placebo
[4] = within 0-12 h and 0-24 h after the first postoperative administration, compared with tramadol and placebo
[5] = within 0-24 h, compared with tramadol and placebo

With `CC(=O)N1CC2(CCN(C(=O)[C@@H](CCCCN)NC(=O)[C@@H](CC(C)C)NC(=O)[C@@H](Cc3ccccc3)NC(=O)[C@H](N)Cc3ccccc3)CC2)C1` [Compound 1, (2R)-N-[(1R)-1-(2-acetyl-2,7-diazaspiro[3.5]nonane-7-carbonyl)-5-amino-pentyl]-2-[[(2R)-2-[[(2R)-2-amino-3-phenyl-propionyl]amino]-3-phenylpropionyl]amino]-4-methyl-pentanamide] the “Change in incidence of nausea relative to placebo” value (Example 2) was 50% reduction, the “Change in incidence of vomiting relative to placebo” value (Example 2) was 47.9% reduction and the “overall safety and tolerability” value (Example 2) was “good overall safety and tolerability”. The serious adverse events (Example 2) was “No serious adverse events occurred”, the “Nausea (incidence)” value [1] was 10.1% and the “Vomiting (incidence)” value [1] was 8.5%. For the same compound, the “Change in incidence of nausea relative to placebo” value [2] was 50 % reduction, the “Change in incidence of vomiting relative to placebo” value [2] was 47.9 % reduction and the “SPID0-24 h after the first postoperative administration” value (compared with placebo) was “superior to that in the placebo group”. For the same compound, the “PID at each time point” value [3] was “comparable to those in the tramadol group and significantly lower than those in the placebo group”, the “SPID0-12 h after the first postoperative administration” value [3] was “comparable to those in the tramadol group and significantly lower than those in the placebo group” and the duration of analgesia [3] was “comparable to those in the tramadol group and significantly longer than those in the placebo group”. The “incidence of decreased thyroid-stimulating hormone” value [3] was “slightly higher than that in the tramadol group and the placebo group”, the “incidences of nausea and vomiting” value [3] was “lower than those in the tramadol group and the placebo group” and the “subject and investigator satisfaction scores for postoperative analgesia” value [3] was “generally comparable to those in the tramadol group and significantly higher than those in the placebo group”. The “time to the first use of rescue analgesic agents” value [3] was “comparable to those in the tramadol group and significantly longer than those in the placebo group”, the “SPID0-24 h after the first postoperative administration” value (compared with tramadol injection (50 mg/dose)) was “non-inferior to that in the tramadol injection group” and the “effect on PONV in patients after abdominal surgery” value (summary of both Phase III studies (Example 2)) was “preventive and/or alleviating effect on PONV”. The “mean cumulative dosage of rescue analgesic agents” value [4] was “comparable to those in the tramadol group and significantly lower than those in the placebo group”, the “proportion of subjects with NRS scores ≤ 3” value [4] was “generally comparable to those in the tramadol group and significantly higher than those in the placebo group” and the “cumulative dosage of other antiemetic agents” value [5] was “higher than those in the tramadol group and the placebo group”. For the same compound, the “proportion of subjects using other antiemetic agents” value [5] was “slightly lower than those in the tramadol group and the placebo group”, the “proportion of subjects using tropisetron and the cumulative dosage” value (within 0-24 h after the first administration, compared with tramadol and placebo) was “significantly lower than those in the tramadol group and the placebo group” and the “proportion of subjects using rescue analgesic agents” value (within 0-24 h after the first postoperative administration, compared with tramadol and placebo) was “comparable to those in the tramadol group and significantly lower than those in the placebo group”.
